Experiments:
[1] = molecular target: GDP-bound HRAS wild-type protein (Homo sapiens, UniProt P01112); experiment: Binding to HRAS by surface plasmon resonance (SPR), Single Cycle Kinetics; settings: SPR, GDP-bound HRAS wild-type vs GDP-bound KRAS wild-type
[2] = molecular target: GDP-bound NRAS wild-type protein (Homo sapiens, UniProt P01111); experiment: Binding to NRAS by surface plasmon resonance (SPR), Single Cycle Kinetics; settings: SPR, GDP-bound NRAS wild-type vs GDP-bound KRAS wild-type
GDP-bound NRAS wild-type protein, sequence (P01111 whole entry): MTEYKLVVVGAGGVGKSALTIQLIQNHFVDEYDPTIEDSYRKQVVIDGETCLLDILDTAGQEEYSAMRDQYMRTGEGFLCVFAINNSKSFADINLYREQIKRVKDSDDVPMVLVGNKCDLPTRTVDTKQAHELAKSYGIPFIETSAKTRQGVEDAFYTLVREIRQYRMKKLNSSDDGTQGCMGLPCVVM

GDP-bound HRAS wild-type protein, sequence (P01112 whole entry): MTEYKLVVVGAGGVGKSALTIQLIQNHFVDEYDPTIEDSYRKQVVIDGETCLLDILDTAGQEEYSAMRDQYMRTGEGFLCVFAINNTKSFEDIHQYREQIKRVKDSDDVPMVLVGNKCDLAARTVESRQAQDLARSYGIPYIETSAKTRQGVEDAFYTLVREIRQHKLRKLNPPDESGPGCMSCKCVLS

CCO[C@@H]1C[C@H]2C(=O)NC3(CC(C)(C)C3)C(=O)N(C)[C@@H](C(CC)CC)C(=O)N(C)[C@H](C(=O)N(C)C)CC(=O)N(C)[C@@H](C(C)C)C(=O)N[C@@H]([C@@H](C)CC)C(=O)N(C)CC(=O)N(C)[C@H]3C/C=C\CCN(C3=O)[C@@H](CC3CCC(F)(F)CC3)C(=O)N(C)CC(=O)N[C@@H](CCc3ccc(C(F)(F)F)c(Cl)c3)C(=O)N2C1 [PP2492]
HRAS/KRAS (ratio of KD value with respect to HRAS to KD value with respect to KRAS) [1]: A (a compound having 10 or more and less than 20 is denoted as A)
NRAS/KRAS (ratio of KD value with respect to NRAS to KD value with respect to KRAS) [2]: AA (a compound having 20 or more is denoted as AA)

CCC(CC)[C@H]1C(=O)N(C)[C@H](C(=O)N(C)C)CC(=O)N(C)[C@@H](CC2CC2)C(=O)N[C@@H]([C@@H](C)CC)C(=O)N(C)CC(=O)N(C)[C@H]2C/C=C\CCN(C2=O)[C@@H](CC2CCC(F)(F)CC2)C(=O)N(C)CC(=O)N[C@@H](CCc2ccc(C(F)(F)F)c(OC)c2)C(=O)N2C[C@@H](C)C[C@H]2C(=O)NC2(CC(C)(C)C2)C(=O)N1C [PP2494]
HRAS/KRAS (ratio of KD value with respect to HRAS to KD value with respect to KRAS) [1]: A (a compound having 10 or more and less than 20 is denoted as A)
NRAS/KRAS (ratio of KD value with respect to NRAS to KD value with respect to KRAS) [2]: A (a compound having 10 or more and less than 20 is denoted as A)

CCO[C@@H]1C[C@H]2C(=O)NC3(CC(C)(C)C3)C(=O)N(C)[C@@H](C(CC)CC)C(=O)N(C)[C@H](C(=O)N(C)C)CC(=O)N(C)[C@@H](CC3CC3)C(=O)N[C@@H]([C@@H](C)CC)C(=O)N(C)CC(=O)N(C)[C@H]3C/C=C\CCN(C3=O)[C@@H](CC3CCC(F)(F)CC3)C(=O)N(C)CC(=O)N[C@@H](CCc3ccc(C(F)(F)F)c(Cl)c3)C(=O)N2C1 [PP2495]
HRAS/KRAS (ratio of KD value with respect to HRAS to KD value with respect to KRAS) [1]: A (a compound having 10 or more and less than 20 is denoted as A)
NRAS/KRAS (ratio of KD value with respect to NRAS to KD value with respect to KRAS) [2]: A (a compound having 10 or more and less than 20 is denoted as A)

CCC(CC)[C@H]1C(=O)N(C)[C@H](C(=O)N(C)C)CC(=O)N(C)[C@@H](C(C)C)C(=O)N[C@@H]([C@@H](C)CC)C(=O)N(C)CC(=O)N(C)[C@H]2C/C=C\CCN(C2=O)[C@@H](CC2CCC(F)(F)CC2)C(=O)N(C)CC(=O)N[C@@H](CCc2cc(F)c(C(F)(F)F)c(F)c2)C(=O)N2C[C@@H](C)C[C@H]2C(=O)NC2(CC(C)(C)C2)C(=O)N1C [PP2496]
HRAS/KRAS (ratio of KD value with respect to HRAS to KD value with respect to KRAS) [1]: A (a compound having 10 or more and less than 20 is denoted as A)
NRAS/KRAS (ratio of KD value with respect to NRAS to KD value with respect to KRAS) [2]: A (a compound having 10 or more and less than 20 is denoted as A)

CCC[C@H]1C(=O)N[C@@H]([C@@H](C)CC)C(=O)N(C)CC(=O)N(C)[C@H]2C/C=C\CCN(C2=O)[C@@H](CC2CCC(F)(F)CC2)C(=O)N(C)CC(=O)N[C@@H](CCc2ccc(C(F)(F)F)c(OC)c2)C(=O)N2C[C@@H](C)C[C@H]2C(=O)NC2(CC(C)(C)C2)C(=O)N(C)[C@@H](C(CC)CC)C(=O)N(C)[C@H](C(=O)N(C)C)CC(=O)N1C [PP2497]
HRAS/KRAS (ratio of KD value with respect to HRAS to KD value with respect to KRAS) [1]: A (a compound having 10 or more and less than 20 is denoted as A)
NRAS/KRAS (ratio of KD value with respect to NRAS to KD value with respect to KRAS) [2]: A (a compound having 10 or more and less than 20 is denoted as A)

CCC[C@H]1C(=O)N[C@@H]([C@@H](C)CC)C(=O)N(C)CC(=O)N(C)[C@H]2C/C=C\CCN(C2=O)[C@@H](CC2CCC(F)(F)CC2)C(=O)N(C)CC(=O)N[C@@H](CCc2ccc(C(F)(F)F)c(Cl)c2)C(=O)N2C[C@H](OCC)C[C@H]2C(=O)NC2(CC(C)(C)C2)C(=O)N(C)[C@@H](C(CC)CC)C(=O)N(C)[C@H](C(=O)N(C)C)CC(=O)N1C [PP2498]
HRAS/KRAS (ratio of KD value with respect to HRAS to KD value with respect to KRAS) [1]: A (a compound having 10 or more and less than 20 is denoted as A)
NRAS/KRAS (ratio of KD value with respect to NRAS to KD value with respect to KRAS) [2]: A (a compound having 10 or more and less than 20 is denoted as A)

CCC(CC)[C@H]1C(=O)N(C)[C@H](C(=O)N(C)C)CC(=O)N(C)[C@@H](CC2CC2)C(=O)N[C@@H]([C@@H](C)CC)C(=O)N(C)CC(=O)N(C)[C@H]2C/C=C\CCN(C2=O)[C@@H](CC2CCC(F)(F)CC2)C(=O)N(C)CC(=O)N[C@@H](CCc2cc(F)c(C(F)(F)F)c(F)c2)C(=O)N2C[C@@H](C)C[C@H]2C(=O)NC2(CC(C)(C)C2)C(=O)N1C [PP2500]
HRAS/KRAS (ratio of KD value with respect to HRAS to KD value with respect to KRAS) [1]: A (a compound having 10 or more and less than 20 is denoted as A)
NRAS/KRAS (ratio of KD value with respect to NRAS to KD value with respect to KRAS) [2]: A (a compound having 10 or more and less than 20 is denoted as A)

CCCOC[C@H]1C(=O)N[C@@H]([C@@H](C)CC)C(=O)N(C)CC(=O)N(C)[C@H]2C/C=C\CCN(C2=O)[C@@H](CC2CCCCC2)C(=O)N(C)CC(=O)N[C@@H](CCc2cc(F)c(C(F)(F)F)c(F)c2)C(=O)N2C[C@H](OCC)C[C@H]2C(=O)NC2(CC(C)(C)C2)C(=O)N(C)[C@@H](C(CC)CC)C(=O)N(C)[C@H](C(=O)N(C)C)CC(=O)N1C [PP2501]
HRAS/KRAS (ratio of KD value with respect to HRAS to KD value with respect to KRAS) [1]: A (a compound having 10 or more and less than 20 is denoted as A)
NRAS/KRAS (ratio of KD value with respect to NRAS to KD value with respect to KRAS) [2]: AA (a compound having 20 or more is denoted as AA)

CC[C@H](C)[C@@H]1NC(=O)[C@H](COC)N(C)C(=O)C[C@@H](C(=O)N(C)C)N(C)C(=O)[C@H](C2CCCC2)N(C)C(=O)C2(CC(C)(C)C2)NC(=O)[C@@H]2C[C@H](C)CN2C(=O)[C@H](CCc2ccc(C(F)(F)F)c(Cl)c2)NC(=O)CN(C)C(=O)[C@H](Cc2ccc(C)cc2)N2CC/C=C\C[C@@H](C2=O)N(C)C(=O)CN(C)C1=O [PP2502]
HRAS/KRAS (ratio of KD value with respect to HRAS to KD value with respect to KRAS) [1]: A (a compound having 10 or more and less than 20 is denoted as A)
NRAS/KRAS (ratio of KD value with respect to NRAS to KD value with respect to KRAS) [2]: A (a compound having 10 or more and less than 20 is denoted as A)

CCOC[C@H]1C(=O)N[C@@H]([C@@H](C)CC)C(=O)N(C)CC(=O)N(C)[C@H]2C/C=C\CCN(C2=O)[C@@H](Cc2ccc(C)cc2)C(=O)N(C)CC(=O)N[C@@H](CCc2ccc(C(F)(F)F)c(OC)c2)C(=O)N2C[C@@H](C)C[C@H]2C(=O)NC2(CC(C)(C)C2)C(=O)N(C)[C@@H](C2CCCC2)C(=O)N(C)[C@H](C(=O)N(C)C)CC(=O)N1C [PP2505]
HRAS/KRAS (ratio of KD value with respect to HRAS to KD value with respect to KRAS) [1]: B (a compound having 3 or more and less than 10 is denoted as B)
NRAS/KRAS (ratio of KD value with respect to NRAS to KD value with respect to KRAS) [2]: A (a compound having 10 or more and less than 20 is denoted as A)

CC[C@H](C)[C@@H]1NC(=O)[C@H](COC)N(C)C(=O)C[C@@H](C(=O)N(C)CC)N(C)C(=O)[C@H](C2CCCC2)N(C)C(=O)C2(CC(C)(C)C2)NC(=O)[C@@H]2C[C@H](C)CN2C(=O)[C@H](CCc2ccc(C(F)(F)F)c(Cl)c2)NC(=O)CN(C)C(=O)[C@H](Cc2ccc(C)cc2)N2CC/C=C\C[C@@H](C2=O)N(C)C(=O)CN(C)C1=O [PP2506]
HRAS/KRAS (ratio of KD value with respect to HRAS to KD value with respect to KRAS) [1]: A (a compound having 10 or more and less than 20 is denoted as A)
NRAS/KRAS (ratio of KD value with respect to NRAS to KD value with respect to KRAS) [2]: A (a compound having 10 or more and less than 20 is denoted as A)

CCO[C@@H]1C[C@H]2C(=O)NC3(CC(C)(C)C3)C(=O)N(C)[C@@H](C3CCCC3)C(=O)N(C)[C@H](C(=O)N(C)CC)CC(=O)N(C)[C@@H](COC)C(=O)N[C@@H]([C@@H](C)CC)C(=O)N(C)CC(=O)N(C)[C@H]3C/C=C\CCN(C3=O)[C@@H](Cc3ccc(C)cc3)C(=O)N(C)CC(=O)N[C@@H](CCc3ccc(C(F)(F)F)c(Cl)c3)C(=O)N2C1 [PP2507]
HRAS/KRAS (ratio of KD value with respect to HRAS to KD value with respect to KRAS) [1]: A (a compound having 10 or more and less than 20 is denoted as A)
NRAS/KRAS (ratio of KD value with respect to NRAS to KD value with respect to KRAS) [2]: AA (a compound having 20 or more is denoted as AA)

CCC[C@H]1C(=O)N[C@@H](CC(C)C)C(=O)N(C2CC2)CC(=O)N(C)[C@H]2C/C=C\CCN(C2=O)[C@@H](Cc2ccc(C)cc2)C(=O)N(C)CC(=O)N[C@@H](CCc2cc(F)c(C(F)(F)F)c(F)c2)C(=O)N2C[C@H](OCC)C[C@H]2C(=O)NC2(CC(C)(C)C2)C(=O)N(C)[C@@H](C2CCCC2)C(=O)N(C)[C@H](C(=O)N(C)C)CC(=O)N1C [PP2508]
HRAS/KRAS (ratio of KD value with respect to HRAS to KD value with respect to KRAS) [1]: B (a compound having 3 or more and less than 10 is denoted as B)
NRAS/KRAS (ratio of KD value with respect to NRAS to KD value with respect to KRAS) [2]: A (a compound having 10 or more and less than 20 is denoted as A)

CCC[C@H]1C(=O)N[C@@H](CC(C)C)C(=O)N(C2CC2)CC(=O)N(C)[C@H]2C/C=C\CCN(C2=O)[C@@H](Cc2ccc(C)cc2)C(=O)N(C)CC(=O)N[C@@H](CCc2ccc(C(F)(F)F)c(OC)c2)C(=O)N2C[C@H](OCC)C[C@H]2C(=O)NC2(CC(C)(C)C2)C(=O)N(C)[C@@H](C2CCCC2)C(=O)N(C)[C@H](C(=O)N(C)C)CC(=O)N1C [PP2510]
HRAS/KRAS (ratio of KD value with respect to HRAS to KD value with respect to KRAS) [1]: B (a compound having 3 or more and less than 10 is denoted as B)
NRAS/KRAS (ratio of KD value with respect to NRAS to KD value with respect to KRAS) [2]: A (a compound having 10 or more and less than 20 is denoted as A)

CC[C@H](C)[C@@H]1NC(=O)[C@H](COC)N(C)C(=O)C[C@@H](C(=O)N(C)C)N(C)C(=O)[C@H](C2CCCC2)N(C)C(=O)C2(CC(C)(C)C2)NC(=O)[C@@H]2C[C@@H](OC(C)C)CN2C(=O)[C@H](CCc2cc(F)c(C(F)(F)F)c(F)c2)NC(=O)CN(C)C(=O)[C@H](CC2CCCCC2)N2CC/C=C\C[C@@H](C2=O)N(C)C(=O)CN(C2CC2)C1=O [PP2511]
HRAS/KRAS (ratio of KD value with respect to HRAS to KD value with respect to KRAS) [1]: A (a compound having 10 or more and less than 20 is denoted as A)
NRAS/KRAS (ratio of KD value with respect to NRAS to KD value with respect to KRAS) [2]: A (a compound having 10 or more and less than 20 is denoted as A)

C#CCN1CC(=O)N(C)[C@H]2C/C=C\CCN(C2=O)[C@@H](Cc2ccc(C)cc2)C(=O)N(C)CC(=O)N[C@@H](CCc2cc(F)c(C(F)(F)F)c(F)c2)C(=O)N2C[C@H](OCC)C[C@H]2C(=O)NC2(CC(C)(C)C2)C(=O)N(C)[C@@H](C2CCCC2)C(=O)N(C)[C@H](C(=O)N(C)C)CC(=O)N(C)[C@@H](CCC)C(=O)N[C@@H](CC(C)C)C1=O [PP2512]
HRAS/KRAS (ratio of KD value with respect to HRAS to KD value with respect to KRAS) [1]: A (a compound having 10 or more and less than 20 is denoted as A)
NRAS/KRAS (ratio of KD value with respect to NRAS to KD value with respect to KRAS) [2]: A (a compound having 10 or more and less than 20 is denoted as A)
